According to the NIST ThermoML archive (doi:10.1016/j.jct.2010.10.016):
Numbers after ± are expanded uncertainties.

Experiment: xn = mol fraction of the nth substance listed
Settings: 101 kPa, Liquid; for viscosity: Capillary tube (Ostwald / Ubbelohde) method; for mass density: Pycnometric method; for speed of sound: Resonance method

C[N+](=O)[O-] [nitromethane] + COCCO
Settings | mass density [kg/m3] | speed of sound [m/s] | viscosity [mPa·s]
293.15 K, x1 = 0.05 | 970.66 ± 0.49 | 1354.7 ± 2.3 | –
293.15 K, x1 = 0.0501 | – | – | 1.618 ± 0.014
293.15 K, x1 = 0.0998 | 976.62 ± 0.5 | 1351.1 ± 2.3 | –
293.15 K, x1 = 0.1024 | – | – | 1.527 ± 0.013
293.15 K, x1 = 0.2 | 989.24 ± 0.52 | 1345 ± 2.3 | –
293.15 K, x1 = 0.2162 | – | – | 1.341 ± 0.012
293.15 K, x1 = 0.2991 | – | 1340 ± 2.3 | –
293.15 K, x1 = 0.3 | 1002.64 ± 0.54 | – | –
293.15 K, x1 = 0.3003 | – | – | 1.216 ± 0.011
293.15 K, x1 = 0.4 | 1017.06 ± 0.55 | 1335.5 ± 2.3 | –
293.15 K, x1 = 0.4076 | – | – | 1.072 ± 0.01
293.15 K, x1 = 0.451 | – | – | 1.02 ± 0.009
293.15 K, x1 = 0.4997 | – | – | 0.964 ± 0.009
293.15 K, x1 = 0.4998 | – | 1331.9 ± 2.3 | –
293.15 K, x1 = 0.5 | 1032.73 ± 0.57 | – | –
293.15 K, x1 = 0.55 | – | – | 0.91 ± 0.008
293.15 K, x1 = 0.6 | 1049.94 ± 0.59 | 1329.2 ± 2.3 | –
293.15 K, x1 = 0.6026 | – | – | 0.859 ± 0.008
293.15 K, x1 = 0.6998 | – | – | 0.775 ± 0.008
293.15 K, x1 = 0.7 | 1068.86 ± 0.62 | 1327.7 ± 2.3 | –
293.15 K, x1 = 0.7991 | – | – | 0.71 ± 0.007
293.15 K, x1 = 0.8 | – | 1327.5 ± 2.3 | –
293.15 K, x1 = 0.8002 | 1089.69 ± 0.64 | – | –
293.15 K, x1 = 0.8999 | 1112.46 ± 0.65 | 1330.3 ± 2.4 | –
293.15 K, x1 = 0.9001 | – | – | 0.663 ± 0.007
293.15 K, x1 = 0.941 | – | – | 0.653 ± 0.007
293.15 K, x1 = 0.9503 | 1124.81 ± 0.66 | 1333.7 ± 2.4 | –
293.15 K, x1 = 1 | 1137.63 ± 0.66 | 1340.2 ± 2.4 | 0.648 ± 0.007
298.15 K, x1 = 0.05 | 965.94 ± 0.5 | 1338.1 ± 2.3 | –
298.15 K, x1 = 0.0506 | – | – | 1.466 ± 0.013
298.15 K, x1 = 0.0998 | 971.79 ± 0.5 | 1334.8 ± 2.3 | –
298.15 K, x1 = 0.1037 | – | – | 1.387 ± 0.012
298.15 K, x1 = 0.2 | 984.22 ± 0.52 | 1329.2 ± 2.3 | –
298.15 K, x1 = 0.2002 | – | – | 1.249 ± 0.011
298.15 K, x1 = 0.2991 | – | 1324.1 ± 2.3 | –
298.15 K, x1 = 0.3 | 997.42 ± 0.53 | – | –
298.15 K, x1 = 0.3006 | – | – | 1.118 ± 0.01
298.15 K, x1 = 0.4 | 1011.62 ± 0.55 | 1319.6 ± 2.3 | –
298.15 K, x1 = 0.4052 | – | – | 0.994 ± 0.009
298.15 K, x1 = 0.4509 | – | – | 0.944 ± 0.009
298.15 K, x1 = 0.4998 | – | 1315.6 ± 2.3 | –
298.15 K, x1 = 0.5 | 1027.07 ± 0.56 | – | –
298.15 K, x1 = 0.5016 | – | – | 0.892 ± 0.008
298.15 K, x1 = 0.5497 | – | – | 0.846 ± 0.008
298.15 K, x1 = 0.5991 | – | – | 0.8 ± 0.008
298.15 K, x1 = 0.6 | 1044.03 ± 0.58 | 1312.6 ± 2.3 | –
298.15 K, x1 = 0.694 | – | – | 0.725 ± 0.007
298.15 K, x1 = 0.7 | 1062.69 ± 0.6 | 1310.7 ± 2.3 | –
298.15 K, x1 = 0.7953 | – | – | 0.666 ± 0.007
298.15 K, x1 = 0.8 | – | 1310.6 ± 2.3 | –
298.15 K, x1 = 0.8002 | 1083.23 ± 0.62 | – | –
298.15 K, x1 = 0.8997 | – | – | 0.629 ± 0.007
298.15 K, x1 = 0.8999 | 1105.69 ± 0.65 | 1312.9 ± 2.4 | –
298.15 K, x1 = 0.9454 | – | – | 0.621 ± 0.006
298.15 K, x1 = 0.9503 | 1117.91 ± 0.66 | 1315.8 ± 2.4 | –
298.15 K, x1 = 1 | 1130.62 ± 0.67 | 1320.4 ± 2.4 | 0.619 ± 0.006
303.15 K, x1 = 0.05 | 961.25 ± 0.5 | 1321.7 ± 2.3 | –
303.15 K, x1 = 0.0585 | – | – | 1.328 ± 0.012
303.15 K, x1 = 0.0998 | 966.98 ± 0.51 | 1318.5 ± 2.3 | –
303.15 K, x1 = 0.1015 | – | – | 1.271 ± 0.011
303.15 K, x1 = 0.1989 | – | – | 1.149 ± 0.01
303.15 K, x1 = 0.2 | 979.15 ± 0.52 | 1312.9 ± 2.3 | –
303.15 K, x1 = 0.2991 | – | 1307.4 ± 2.3 | –
303.15 K, x1 = 0.3 | 992.16 ± 0.54 | – | –
303.15 K, x1 = 0.3091 | – | – | 1.02 ± 0.01
303.15 K, x1 = 0.3978 | – | – | 0.925 ± 0.009
303.15 K, x1 = 0.4 | 1006.16 ± 0.55 | 1302.5 ± 2.3 | –
303.15 K, x1 = 0.449 | – | – | 0.875 ± 0.008
303.15 K, x1 = 0.4998 | – | 1298.1 ± 2.3 | 0.828 ± 0.008
303.15 K, x1 = 0.5 | 1021.4 ± 0.57 | – | –
303.15 K, x1 = 0.5549 | – | – | 0.782 ± 0.008
303.15 K, x1 = 0.59 | – | – | 0.756 ± 0.007
303.15 K, x1 = 0.6 | 1038.1 ± 0.59 | 1294.5 ± 2.3 | –
303.15 K, x1 = 0.6977 | – | – | 0.684 ± 0.007
303.15 K, x1 = 0.7 | 1056.45 ± 0.61 | 1292.2 ± 2.3 | –
303.15 K, x1 = 0.7979 | – | – | 0.632 ± 0.007
303.15 K, x1 = 0.8 | – | 1291.7 ± 2.3 | –
303.15 K, x1 = 0.8002 | 1076.63 ± 0.63 | – | –
303.15 K, x1 = 0.8999 | 1098.72 ± 0.65 | 1293.4 ± 2.3 | –
303.15 K, x1 = 0.9037 | – | – | 0.594 ± 0.006
303.15 K, x1 = 0.9503 | 1110.81 ± 0.66 | 1295.1 ± 2.4 | –
303.15 K, x1 = 0.9508 | – | – | 0.585 ± 0.006
303.15 K, x1 = 1 | 1123.6 ± 0.67 | 1298.1 ± 2.4 | 0.584 ± 0.006
308.15 K, x1 = 0.05 | 956.53 ± 0.52 | 1310.2 ± 2.3 | –
308.15 K, x1 = 0.0671 | – | – | 1.175 ± 0.011
308.15 K, x1 = 0.0998 | 962.12 ± 0.52 | 1307.4 ± 2.3 | –
308.15 K, x1 = 0.1029 | – | – | 1.134 ± 0.011
308.15 K, x1 = 0.1995 | – | – | 1.025 ± 0.01
308.15 K, x1 = 0.2 | 974.11 ± 0.54 | 1301.4 ± 2.3 | –
308.15 K, x1 = 0.2991 | – | 1295.7 ± 2.3 | –
308.15 K, x1 = 0.3 | 986.95 ± 0.55 | – | –
308.15 K, x1 = 0.3053 | – | – | 0.917 ± 0.009
308.15 K, x1 = 0.4 | 1000.76 ± 0.56 | 1290.4 ± 2.3 | –
308.15 K, x1 = 0.4012 | – | – | 0.833 ± 0.008
308.15 K, x1 = 0.4528 | – | – | 0.792 ± 0.008
308.15 K, x1 = 0.4998 | – | 1285.6 ± 2.3 | –
308.15 K, x1 = 0.5 | 1015.8 ± 0.58 | – | –
308.15 K, x1 = 0.5078 | – | – | 0.75 ± 0.008
308.15 K, x1 = 0.5514 | – | – | 0.719 ± 0.007
308.15 K, x1 = 0.5981 | – | – | 0.689 ± 0.007
308.15 K, x1 = 0.6 | 1032.3 ± 0.59 | 1281.5 ± 2.3 | –
308.15 K, x1 = 0.6981 | – | – | 0.633 ± 0.007
308.15 K, x1 = 0.7 | 1050.38 ± 0.61 | 1278.6 ± 2.3 | –
308.15 K, x1 = 0.7954 | – | – | 0.594 ± 0.006
308.15 K, x1 = 0.8 | – | 1277.7 ± 2.3 | –
308.15 K, x1 = 0.8002 | 1070.27 ± 0.63 | – | –
308.15 K, x1 = 0.8985 | – | – | 0.572 ± 0.006
308.15 K, x1 = 0.8999 | 1092.11 ± 0.66 | 1278.6 ± 2.3 | –
308.15 K, x1 = 0.9383 | – | – | 0.569 ± 0.006
308.15 K, x1 = 0.9503 | 1104.13 ± 0.67 | 1279.6 ± 2.3 | –
308.15 K, x1 = 1 | 1116.86 ± 0.67 | 1281.2 ± 2.3 | 0.563 ± 0.006
313.15 K, x1 = 0.0498 | – | – | 1.055 ± 0.01
313.15 K, x1 = 0.05 | 951.39 ± 0.53 | 1293.9 ± 2.3 | –
313.15 K, x1 = 0.0998 | 956.87 ± 0.53 | 1291.1 ± 2.3 | –
313.15 K, x1 = 0.1101 | – | – | 0.999 ± 0.01
313.15 K, x1 = 0.2 | 968.71 ± 0.54 | 1285.4 ± 2.3 | –
313.15 K, x1 = 0.2081 | – | – | 0.911 ± 0.009
313.15 K, x1 = 0.2991 | – | 1279.7 ± 2.3 | –
313.15 K, x1 = 0.3 | 981.39 ± 0.55 | – | –
313.15 K, x1 = 0.3023 | – | – | 0.835 ± 0.008
313.15 K, x1 = 0.4 | 995.04 ± 0.56 | 1274.2 ± 2.3 | –
313.15 K, x1 = 0.4004 | – | – | 0.762 ± 0.008
313.15 K, x1 = 0.4571 | – | – | 0.722 ± 0.007
313.15 K, x1 = 0.4998 | – | 1269.3 ± 2.3 | –
313.15 K, x1 = 0.5 | 1009.9 ± 0.57 | – | –
313.15 K, x1 = 0.5015 | – | – | 0.693 ± 0.007
313.15 K, x1 = 0.5566 | – | – | 0.659 ± 0.007
313.15 K, x1 = 0.599 | – | – | 0.636 ± 0.007
313.15 K, x1 = 0.6 | 1026.19 ± 0.59 | 1265.1 ± 2.3 | –
313.15 K, x1 = 0.6995 | – | – | 0.589 ± 0.006
313.15 K, x1 = 0.7 | 1044.07 ± 0.6 | 1262.1 ± 2.3 | –
313.15 K, x1 = 0.8 | – | 1260.9 ± 2.3 | 0.562 ± 0.006
313.15 K, x1 = 0.8002 | 1063.69 ± 0.62 | – | –
313.15 K, x1 = 0.8851 | – | – | 0.555 ± 0.006
313.15 K, x1 = 0.8999 | 1085.24 ± 0.65 | 1261.5 ± 2.3 | –
313.15 K, x1 = 0.9387 | – | – | 0.553 ± 0.006
313.15 K, x1 = 0.9503 | 1097.15 ± 0.67 | 1262.2 ± 2.3 | –
313.15 K, x1 = 1 | 1109.87 ± 0.68 | 1262.8 ± 2.4 | 0.545 ± 0.006
